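Protocol summary: plate cells (96-well), add compound at 5 concentrations, incubate 48 h, interpolate endpoints linearly. Here, GI50 denotes the concentration required for 50% inhibition of growth. TGI: concentration producing complete growth inhibition.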
Assays:
Experiment in all cases: inhibition of tumour cell growth, NCI panel, 48 h
[1] = system: NCI/ADR-RES ovarian
[2] = system: MDA-MB-435
[3] = system: SK-OV-3 ovarian
[4] = system: SN12C renal
[5] = system: SF-268 CNS
[6] = system: MDA-MB-231 breast
[7] = system: HOP-62 NSCLC
[8] = system: KM12 colon
[9] = system: COLO 205 colon
[10] = system: UACC-257 melanoma
[11] = system: NCI-H23 lung
[12] = system: CAKI-1 renal
[13] = system: OVCAR-8 ovarian
[14] = system: OVCAR-4 ovarian
[15] = system: TK-10 renal
[16] = system: MCF7 breast
[17] = system: SW-620 colon
[18] = system: UO-31 renal
[19] = system: A498 renal
[20] = system: BT-549 breast
[21] = system: NCI-H522 lung
[22] = system: RPMI-8226 leukemia
[23] = system: 786-0 renal
[24] = system: SF-539 CNS
[25] = system: HCT-15 colon
[26] = system: SR leukemia
[27] = system: UACC-62 melanoma
[28] = system: SK-MEL-28 melanoma
[29] = system: OVCAR-3 ovarian
[30] = system: ACHN renal
[31] = system: U251 CNS
[32] = system: MALME-3M melanoma
[33] = system: A549 NSCLC
[34] = system: SNB-19 CNS
[35] = system: DU-145 prostate
[36] = system: HS 578T breast
[37] = system: LOX IMVI melanoma
[38] = system: EKVX NSCLC
[39] = system: OVCAR-5 ovarian
[40] = system: SK-MEL-5 melanoma
[41] = system: SK-MEL-2 melanoma
[42] = system: HCC-2998 colon
[43] = system: IGROV1 ovarian
[44] = system: PC-3 prostate
[45] = system: HT29 colon
[46] = system: SF-295 CNS
[47] = system: T-47D breast
[48] = system: MDA-MB-468 breast
[49] = system: CCRF-CEM leukemia
[50] = system: NCI-H226 lung
[51] = system: RXF 393 renal

In the case of `CCN1CCN(Cc2ccc(C(=O)Nc3cccc(C#Cc4cccc5[nH]nc(N)c45)c3)cc2C(F)(F)F)CC1`, the GI50 [1] is reported as 1800 nM, the TGI [1] is reported as 4040 nM and the GI50 [2] is reported as 1230 nM. The TGI [2] was 2500 nM, the GI50 [3] was 2190 nM and the TGI [3] was 4560 nM. The GI50 [4] was 1180 nM, the TGI [4] was 2480 nM and the GI50 [5] was 1430 nM. The TGI [5] was 3330 nM, the GI50 [6] was 919 nM and the TGI [6] was 2140 nM. For the same compound, the GI50 [7] was 1730 nM, the TGI [7] was 3640 nM and the GI50 [8] was 1660 nM. It also gave a TGI [8] of 3270 nM, a GI50 [9] of 1190 nM and a TGI [9] of 2720 nM. It also gave a GI50 [10] of 1470 nM, a TGI [10] of 2860 nM and a GI50 [11] of 1410 nM. The TGI [11] was 2760 nM, the GI50 [12] was 1450 nM and the TGI [12] was 2780 nM. For the same compound, the GI50 [13] was 1430 nM, the TGI [13] was 2800 nM and the GI50 [14] was 1040 nM. It also gave a TGI [14] of 5300 nM, a GI50 [15] of 1890 nM and a TGI [15] of 3380 nM. The GI50 [16] was 1610 nM, the TGI [16] was 3050 nM and the GI50 [17] was 1230 nM. For the same compound, the TGI [17] was 2810 nM, the GI50 [18] was 1430 nM and the TGI [18] was 2930 nM. For the same compound, the GI50 [19] was 2540 nM, the TGI [19] was 4210 nM and the GI50 [20] was 1640 nM. The TGI [20] was 3060 nM, the GI50 [21] was 1100 nM and the TGI [21] was 2400 nM. The GI50 [22] was 1590 nM, the TGI [22] was 3920 nM and the GI50 [23] was 1470 nM. For the same compound, the TGI [23] was 2840 nM, the GI50 [24] was 533 nM and the TGI [24] was 1760 nM. The GI50 [25] was 721 nM, the TGI [25] was 2020 nM and the GI50 [26] was 1780 nM. It also gave a TGI [26] of 4590 nM, a GI50 [27] of 1320 nM and a TGI [27] of 2620 nM. The GI50 [28] was 1630 nM, the TGI [28] was 3000 nM and the GI50 [29] was 1180 nM. The TGI [29] was 2860 nM, the GI50 [30] was 598 nM and the TGI [30] was 1870 nM. For the same compound, the GI50 [31] was 1510 nM, the TGI [31] was 2850 nM and the GI50 [32] was 509 nM. For the same compound, the TGI [32] was 1820 nM, the GI50 [33] was 1300 nM and the TGI [33] was 2600 nM. For the same compound, the GI50 [34] was 1950 nM, the TGI [34] was 3630 nM and the GI50 [35] was 1530 nM. It also gave a TGI [35] of 3120 nM, a GI50 [36] of 2140 nM and a TGI [36] of 6680 nM. The GI50 [37] was 739 nM, the TGI [37] was 1990 nM and the GI50 [38] was 1350 nM. The TGI [38] was 2790 nM, the GI50 [39] was 1470 nM and the TGI [39] was 3030 nM. For the same compound, the GI50 [40] was 1540 nM, the TGI [40] was 2900 nM and the GI50 [41] was 1470 nM. It also gave a TGI [41] of 2930 nM, a GI50 [42] of 1300 nM and a TGI [42] of 2560 nM. For the same compound, the GI50 [43] was 965 nM, the TGI [43] was 2480 nM and the GI50 [44] was 1300 nM. It also gave a TGI [44] of 2780 nM, a GI50 [45] of 1100 nM and a TGI [45] of 2450 nM. The GI50 [46] was 1430 nM, the TGI [46] was 2820 nM and the GI50 [47] was 2250 nM. It also gave a TGI [47] of 6180 nM, a GI50 [48] of 1030 nM and a TGI [48] of 2320 nM. For the same compound, the GI50 [49] was 1600 nM, the TGI [49] was 3620 nM and the GI50 [50] was 1190 nM. The TGI [50] was 3600 nM, the GI50 [51] was 1100 nM and the TGI [51] was 2490 nM.

— PubChem BioAssay (NCI)
